Values quoted from earlier work as cited in publication PMC11990879, “Anticandidal Activity of Lipopeptides Containing an LL-37-Derived Peptide Fragment KR12” (Molecules, 2025).
Marks after values point to notes of the source that are not given here. Where a SMILES comes first, the peptide text is derived from it. The star is where a group is joined. Butanoyl(4-Ph) = O=C(CCCc1ccccc1)*; Hydrocinnamoyl = O=C(CCc1ccccc1)*; Octanoyl = CCCCCCCC(=O)*; X3 = O=C(/C=C/c1ccccc1)*; Hexanoyl = CCCCCC(=O)*; X2 = O=C(C#Cc1ccccc1)*; X4 = CCCCC(CC)C(=O)*; Butyryl = CCCC(=O)*

tested on: human red blood cells; conditions: cited from earlier work
Excerpt: Table 2 Minimum inhibitory concentrations (MIC) and minimum fungicidal concentrations (MFC) determined for peptides and reference antifungals [g/L]. The highest antimicrobial activity is marked in green, medium values in yellow, while the weakest antifungal activity is marked in red. Minimum hemolytic concentration (MHC5%—causing hemolysis of 5% of human red blood cells) determined in previous stu | column: MHC5%

Row | Compound | MHC5% (minimum hemolytic concentration causing hemolysis of 5% of human red blood cells)
1 | CC[C@H](C)[C@H](NC(=O)[C@H](CCCNC(=N)N)NC(=O)[C@H](CCC(N)=O)NC(=O)[C@@H](NC(=O)[C@@H](NC(=O)[C@H](CCCNC(=N)N)NC(=O)[C@H](CCCCN)NC(=O)/C=C/c1ccccc1)[C@@H](C)CC)C(C)C)C(=O)N[C@@H](CCCCN)C(=O)N[C@@H](CC(=O)O)C(=O)N[C@@H](Cc1ccccc1)C(=O)N[C@@H](CC(C)C)C(=O)N[C@@H](CCCNC(=N)N)C(N)=O [IX, trans-cinnamic acid-KR12-NH2] (X3-KRIVQRIKDFLR-NH2) | 128 g/L
2 | CC[C@H](C)[C@H](NC(=O)[C@H](CCCNC(=N)N)NC(=O)[C@H](CCC(N)=O)NC(=O)[C@@H](NC(=O)[C@@H](NC(=O)[C@H](CCCNC(=N)N)NC(=O)[C@H](CCCCN)NC(=O)C#Cc1ccccc1)[C@@H](C)CC)C(C)C)C(=O)N[C@@H](CCCCN)C(=O)N[C@@H](CC(=O)O)C(=O)N[C@@H](Cc1ccccc1)C(=O)N[C@@H](CC(C)C)C(=O)N[C@@H](CCCNC(=N)N)C(N)=O [XXIV, Phenylpropiolic acid-KR12-NH2] (X2-KRIVQRIKDFLR-NH2) | 256 g/L
3 | CCCCCCCC(=O)N[C@@H](CCCCN)C(=O)N[C@@H](CCCCN)C(=O)N[C@@H](CCCNC(=N)N)C(=O)N[C@H](C(=O)N[C@H](C(=O)N[C@@H](CCC(N)=O)C(=O)N[C@@H](CCCNC(=N)N)C(=O)N[C@H](C(=O)N[C@@H](CCCCN)C(=O)N[C@@H](CC(=O)O)C(=O)N[C@@H](Cc1ccccc1)C(=O)N[C@@H](CC(C)C)C(=O)N[C@@H](CCCNC(=N)N)C(N)=O)[C@@H](C)CC)C(C)C)[C@@H](C)CC [XII, C8^α-Lys-KR12-NH2] (Octanoyl-KKRIVQRIKDFLR-NH2) | 256 g/L
4 | CC[C@H](C)[C@H](NC(=O)[C@H](CCCNC(=N)N)NC(=O)[C@H](CCC(N)=O)NC(=O)[C@@H](NC(=O)[C@@H](NC(=O)[C@H](CCCNC(=N)N)NC(=O)[C@H](CCCCN)NC(=O)CCCc1ccccc1)[C@@H](C)CC)C(C)C)C(=O)N[C@@H](CCCCN)C(=O)N[C@@H](CC(=O)O)C(=O)N[C@@H](Cc1ccccc1)C(=O)N[C@@H](CC(C)C)C(=O)N[C@@H](CCCNC(=N)N)C(N)=O [XXIII, 4-Phenylbutanoic acid-KR12-NH2] ({Butanoyl(4-Ph)}-KRIVQRIKDFLR-NH2) | 128 g/L
5 | CCCCC(CC)C(=O)N[C@@H](CCCCN)C(=O)N[C@@H](CCCNC(=N)N)C(=O)N[C@H](C(=O)N[C@H](C(=O)N[C@@H](CCC(N)=O)C(=O)N[C@@H](CCCNC(=N)N)C(=O)N[C@H](C(=O)N[C@@H](CCCCN)C(=O)N[C@@H](CC(=O)O)C(=O)N[C@@H](Cc1ccccc1)C(=O)N[C@@H](CC(C)C)C(=O)N[C@@H](CCCNC(=N)N)C(N)=O)[C@@H](C)CC)C(C)C)[C@@H](C)CC (stereo partly drawn) [XX, 2-Ethylhexanoic acid-KR12-NH2] (X4-KRIVQRIKDFLR-NH2) | 256 g/L
6 | CCCCCCCC(=O)NCCCC[C@H](N)C(=O)N[C@@H](CCCNC(=N)N)C(=O)N[C@H](C(=O)N[C@H](C(=O)N[C@@H](CCC(N)=O)C(=O)N[C@@H](CCCNC(=N)N)C(=O)N[C@H](C(=O)N[C@@H](CCCCN)C(=O)N[C@@H](CC(=O)O)C(=O)N[C@@H](Cc1ccccc1)C(=O)N[C@@H](CC(C)C)C(=O)N[C@@H](CCCNC(=N)N)C(N)=O)[C@@H](C)CC)C(C)C)[C@@H](C)CC [XI, C8^ε-KR12-NH2] (H-K(Octanoyl)RIVQRIKDFLR-NH2) | >256 * g/L

same assay, conditions: human red blood cells; determined in previous studies; ref [13],[14]; cited from earlier work

Row | Compound | MHC5% (minimum hemolytic concentration causing hemolysis of 5% of human red blood cells)
7 | CCCCCCCC(=O)NCCCC[C@H](N)C(=O)N[C@@H](CCCCN)C(=O)N[C@@H](CCCNC(=N)N)C(=O)N[C@H](C(=O)N[C@H](C(=O)N[C@@H](CCC(N)=O)C(=O)N[C@@H](CCCNC(=N)N)C(=O)N[C@H](C(=O)N[C@@H](CCCCN)C(=O)N[C@@H](CC(=O)O)C(=O)N[C@@H](Cc1ccccc1)C(=O)N[C@@H](CC(C)C)C(=O)N[C@@H](CCCNC(=N)N)C(N)=O)[C@@H](C)CC)C(C)C)[C@@H](C)CC [XIII, C8^ε-Lys-KR12-NH2] (H-K(Octanoyl)KRIVQRIKDFLR-NH2) | 256 g/L
8 | CCCCCC(=O)N[C@@H](CCCCN)C(=O)N[C@@H](CCCNC(=N)N)C(=O)N[C@H](C(=O)N[C@H](C(=O)N[C@@H](CCC(N)=O)C(=O)N[C@@H](CCCNC(=N)N)C(=O)N[C@H](C(=O)N[C@@H](CCCCN)C(=O)N[C@@H](CC(=O)O)C(=O)N[C@@H](Cc1ccccc1)C(=O)N[C@@H](CC(C)C)C(=O)N[C@@H](CCCNC(=N)N)C(N)=O)[C@@H](C)CC)C(C)C)[C@@H](C)CC [III, C6-KR12-NH2] (Hexanoyl-KRIVQRIKDFLR-NH2) | 256 g/L
9 | CCCCCCCC(=O)N[C@@H](CCCNC(=N)N)C(=O)N[C@@H](CC(C)C)C(=O)N[C@@H](Cc1ccccc1)C(=O)N[C@@H](CC(=O)O)C(=O)N[C@@H](CCCCN)C(=O)N[C@H](C(=O)N[C@@H](CCCNC(=N)N)C(=O)N[C@@H](CCC(N)=O)C(=O)N[C@H](C(=O)N[C@H](C(=O)N[C@@H](CCCNC(=N)N)C(=O)N[C@@H](CCCCN)C(N)=O)[C@@H](C)CC)C(C)C)[C@@H](C)CC [XVIII, C8^α-retro-KR12-NH2] (Octanoyl-RLFDKIRQVIRK-NH2) | >256 * g/L
10 | CCCCCCCC(=O)NCCCC[C@H](NC(=O)[C@H](CCCNC(=N)N)NC(=O)[C@@H](NC(=O)[C@@H](NC(=O)[C@H](CCC(N)=O)NC(=O)[C@H](CCCNC(=N)N)NC(=O)[C@@H](NC(=O)[C@H](CCCCN)NC(=O)[C@H](CC(=O)O)NC(=O)[C@H](Cc1ccccc1)NC(=O)[C@H](CC(C)C)NC(=O)[C@@H](N)CCCNC(=N)N)[C@@H](C)CC)C(C)C)[C@@H](C)CC)C(N)=O [XVII, Retro-KR12-C8^ε-NH2] (H-RLFDKIRQVIRK(Octanoyl)-NH2) | 256 g/L
11 | CCCC(=O)N[C@@H](CCCCN)C(=O)N[C@@H](CCCNC(=N)N)C(=O)N[C@H](C(=O)N[C@H](C(=O)N[C@@H](CCC(N)=O)C(=O)N[C@@H](CCCNC(=N)N)C(=O)N[C@H](C(=O)N[C@@H](CCCCN)C(=O)N[C@@H](CC(=O)O)C(=O)N[C@@H](Cc1ccccc1)C(=O)N[C@@H](CC(C)C)C(=O)N[C@@H](CCCNC(=N)N)C(N)=O)[C@@H](C)CC)C(C)C)[C@@H](C)CC [II, C4-KR12-NH2] (Butyryl-KRIVQRIKDFLR-NH2) | >256 * g/L
12 | CCCCCCCC(=O)NCCCC[C@H](NC(=O)[C@H](CCCNC(=N)N)NC(=O)[C@H](CC(C)C)NC(=O)[C@H](Cc1ccccc1)NC(=O)[C@H](CC(=O)O)NC(=O)[C@H](CCCCN)NC(=O)[C@@H](NC(=O)[C@H](CCCNC(=N)N)NC(=O)[C@H](CCC(N)=O)NC(=O)[C@@H](NC(=O)[C@@H](NC(=O)[C@H](CCCNC(=N)N)NC(=O)[C@@H](N)CCCCN)[C@@H](C)CC)C(C)C)[C@@H](C)CC)C(N)=O [XIV, KR12-Lys^ε(C8)-NH2] (H-KRIVQRIKDFLRK(Octanoyl)-NH2) | >256 * g/L
13 | CCCCCCCC(=O)NCCCC[C@H](NC(=O)[C@H](CC(C)C)NC(=O)[C@H](Cc1ccccc1)NC(=O)[C@H](CC(=O)O)NC(=O)[C@H](CCCCN)NC(=O)[C@@H](NC(=O)[C@H](CCCNC(=N)N)NC(=O)[C@H](CCC(N)=O)NC(=O)[C@@H](NC(=O)[C@@H](NC(=O)[C@H](CCCNC(=N)N)NC(=O)[C@@H](N)CCCCN)[C@@H](C)CC)C(C)C)[C@@H](C)CC)C(N)=O [XV, [Lys^ε(C8)]^12KR12-NH2] (H-KRIVQRIKDFLK(Octanoyl)-NH2) | >256 * g/L
14 | Ac-KRIVQRIKDFLR-NH2 [I, Ac-KR12-NH2] | >256 * g/L
15 | CC[C@H](C)[C@H](NC(=O)[C@H](CCCNC(=N)N)NC(=O)[C@H](CCC(N)=O)NC(=O)[C@@H](NC(=O)[C@@H](NC(=O)[C@H](CCCNC(=N)N)NC(=O)[C@H](CCCCN)NC(=O)CCc1ccccc1)[C@@H](C)CC)C(C)C)C(=O)N[C@@H](CCCCN)C(=O)N[C@@H](CC(=O)O)C(=O)N[C@@H](Cc1ccccc1)C(=O)N[C@@H](CC(C)C)C(=O)N[C@@H](CCCNC(=N)N)C(N)=O [XXII, 3-Phenylpropionic acid-KR12-NH2] (Hydrocinnamoyl-KRIVQRIKDFLR-NH2) | 256 g/L
